# From patent US20240417406A1, “NITROGEN-CONTAINING TRICYCLIC COMPOUND AND PHARMACEUTICAL USE THEREOF” (JAPAN TOBACCO INC., priority 2021, published 2024)
# Molecular target: human PDHK2 (hPDHK2) (Homo sapiens (Human), UniProt Q15119)
# Experiment: Inhibitory action of PDHK2 activity (PDH/hPDHK2 complex, residual PDH activity by NADH absorbance at 340 nm)
# Assay type: biochemical
# Details: FLAG-tagged recombinant hPDHK2 with porcine heart PDH complex; PDHK reaction 45 min at room temperature
# Protocol: In the case of human PDHK2 (hPDHK2, NCBI Reference Database Accession number NM_002611.4), modified hPDHK2 cDNA wherein FLAG-Tag sequence was added to the N terminal of hPDHK2 cDNA clone (pReceiver-M01/PDK2-GeneCopoeia) as the base was prepared by polymerase chain reaction (PCR) and ligated to the NdeI/EcoRI site of pET-17b vector (Merck KGaA, Catalog Number 69663-3). The recombinant construct was transformed into Escherichia coli DH5a. The recombinant clones were identified, and plasmid DNA was isolated and subjected to the DNA sequence analysis. One clone which had the expected nucleic acid sequence was selected for expression work.
# For expression of hPDHK2 activity, Escherichia coli strain BL21(DE3) cells (Merck KGaA, Catalog Number 69450-4) were transformed with the pET17b vector containing modified hPDHK2 cDNA. The Escherichia coli were grown to an optical density 0.6 ([…]) at 30° C. Protein expression was induced by the addition of 500 μmol/L isopropyl-β-thiogalactopyranoside. The Escherichia coli were cultured at 20° C. for 17 to for 18 hr and harvested by centrifugation. The harvested Escherichia coli was resuspended in a suspension buffer (20 mmol/L HEPES-NaOH, 500 mmol/L sodium chloride, 1% ethylene glycol, 0.1% Pluronic (registered trademark) F-68 (pH 8.0), cOmplete, EDTA-free (Roche) (pH 8.0)), and disrupted by a microfluidizer M-110H (MIZUHO INDUSTRIAL CO., LTD.). The precipitate was removed by centrifugation and the supernatant was added to DDDDK-tagged Protein PURIFICATION GEL (MEDICAL & BIOLOGICAL LABORATORIES CO., LTD., Code No. 3329). DDDDK-tagged Protein PURIFICATION GEL was washed with a washing buffer (20 mmol/L HEPES-NaOH, 500 mmol/L sodium chloride, 1% ethylene glycol, 0.1% Pluronic F-68 (pH 8.0)) and the bound protein was eluted with elution buffer 1 (20 mmol/L HEPES-NaOH, 100 μg/mL peptide (amino acid sequence DYKDDDDK) (SEQ ID NO: 1), 500 mmol/L sodium chloride, 1% ethylene glycol, 0.1% Pluronic F-68 (pH 8.0)). The eluted fractions containing FLAG-Tagged protein were pooled, concentrated by an ultrafiltration method, added to a gel filtration column (HiLoad 26/60 Superdex 200 (GE Healthcare Life Sciences, Code No. 17-1070-01)), and eluted with elution buffer 2 (20 mmol/L HEPES-NaOH, 150 mmol/L sodium chloride, 0.5 mmol/L ethylenediaminetetraacetic acid (EDTA), 1% ethylene glycol, 0.1% Pluronic F-68 (pH 8.0)). The eluted fractions were pooled and preserved at −80° C.
# PDH (porcine heart PDH complex, Sigma P7032) and 0.5 μg/mL hPDHK2 were mixed in an assay buffer (50 mmol/L 3-morpholinopropanesulfonic acid (pH 7.0), 20 mmol/L dipotassium hydrogen phosphate, 60 mmol/L potassium chloride, 2 mmol/L magnesium chloride, 0.4 mmol/L EDTA, 0.2% poloxamer, 2 mmol/L dithiothreitol) so that the final concentration of PDH was 0.025 U/mL, and the mixture was incubated at 4° C. overnight to obtain a PDH/hPDHK2 complex solution.
# PDH was mixed with the assay buffer so that the final concentration was 0.025 U/mL, and the mixture was incubated at 4° C. overnight to prepare a PDH solution.
# The test compounds were diluted with DMSO. […] DMSO (1.5 μL) was added to control wells instead of test compound. In addition, DMSO (1.5 μL) was added to blank wells instead of the test compound, and PDH solution was added instead of the PDH/hPDHK2 complex solution. To measure an inhibitory action of the test compound on the PDHK activity inherent in the PDH solution, a test compound was added and the PDH solution instead of the PDH/hPDHK2 complex solution was added to a blank+test compound well.
# Then, 10 μL of substrates (5 mmol/L sodium pyruvate, 5 mmol/L Coenzyme A, 12 mmol/L NAD, 5 mmol/L thiamine pyrophosphate, diluted with assay buffer) were added. The mixture was incubated at room temperature for 90 min, and the residual PDH activity was measured.
# The absorbance of each well at 340 nm was measured using a microplate reader to detect NADH produced by the PDH reaction. […]
row,IC50,SMILES
1,6.7 nM,"C[C@H]1Cn2nccc2-c2onc([C@@](C)(O)C(F)(F)F)c21 [Example 60, (R)-1,1,1-trifluoro-2-((R)-4-methyl-4,5-dihydroisoxazolo[5,4-c]pyrazolo[1,5-a]pyridin-3-yl)propan-2-ol]"
2,9.8 nM,"C[C@H]1Cn2nc(C3CCOCC3)cc2-c2onc([C@@](C)(O)C(F)(F)F)c21 [Example 61, (R)-1,1,1-trifluoro-2-((R)-4-methyl-8-(tetrahydro-2H-pyran-4-yl)-4,5-dihydroisoxazolo[5,4-c]pyrazolo[1,5-a]pyridin-3-yl)propan-2-ol]"
3,8 nM,"C[C@H]1Cn2nc(OCCC(C)(C)O)cc2-c2onc([C@@](C)(O)C(F)(F)F)c21 [Example 62, 2-methyl-4-(((R)-4-methyl-3-((R)-1,1,1-trifluoro-2-hydroxypropan-2-yl)-4,5-dihydroisoxazolo[5,4-c]pyrazolo[1,5-a]pyridin-8-yl)oxy)butan-2-ol]"
4,9.1 nM,"C[C@H]1Cn2nc(O[C@H]3C[C@](C)(C#N)C3)cc2-c2onc([C@@](C)(O)C(F)(F)F)c21 [Example 63, (1R,3r)-1-methyl-3-(((R)-4-methyl-3-((R)-1,1,1-trifluoro-2-hydroxypropan-2-yl)-4,5-dihydroisoxazolo[5,4-c]pyrazolo[1,5-a]pyridin-8-yl)oxy)cyclobutane-1-carbonitrile]"
5,7.5 nM,"C[C@H]1Cn2nc(OCF)cc2-c2onc([C@@](C)(O)C(F)(F)F)c21 [Example 64, (R)-1,1,1-trifluoro-2-((R)-8-(fluoromethoxy)-4-methyl-4,5-dihydroisoxazolo[5,4-c]pyrazolo[1,5-a]pyridin-3-yl)propan-2-ol]"
6,6.6 nM,"C[C@H]1Cn2nc(O[C@H]3CC[C@](C)(O)CC3)cc2-c2onc([C@@](C)(O)C(F)(F)F)c21 [Example 65, (1R,4r)-1-methyl-4-(((R)-4-methyl-3-((R)-1,1,1-trifluoro-2-hydroxypropan-2-yl)-4,5-dihydroisoxazolo[5,4-c]pyrazolo[1,5-a]pyridin-8-yl)oxy)cyclohexan-1-ol]"
7,13.7 nM,C[C@H]1Cn2nc(OCCF)cc2-c2cnc([C@@](C)(O)C(F)(F)F)n21 [Example 66]
8,11.5 nM,COc1cc2n(n1)C[C@H](C)n1c-2cnc1[C@@](C)(O)C(F)(F)F [Example 67]
9,15.2 nM,COCCOc1cc2n(n1)C[C@H](C)n1c-2cnc1[C@@](C)(O)C(F)(F)F [Example 68]
10,18 nM,C[C@H]1Cn2nc(C34CCC(CO)(CC3)CC4)cc2-c2cnc([C@@](C)(O)C(F)(F)F)n21 [Example 69]
11,21.2 nM,C[C@H]1Cn2nc(C34CC(CO)(C3)C4)cc2-c2cnc([C@@](C)(O)C(F)(F)F)n21 [Example 70]
12,6.6 nM,"C[C@H]1Cn2nc(C34CCC(C#N)(CC3)CC4)cc2-c2cnc([C@@](C)(O)C(F)(F)F)n21 [Example 71, 4-((S)-5-methyl-3-((R)-1,1,1-trifluoro-2-hydroxypropan-2-yl)-5,6-dihydroimidazo[1,5-a]pyrazolo[5,1-c]pyrazin-9-yl)bicyclo[2.2.2]octane-1-carbonitrile]"
13,12.3 nM,C[C@H]1Cn2nc(C34CC(C#N)(C3)C4)cc2-c2cnc([C@@](C)(O)C(F)(F)F)n21 [Example 72]
14,18.4 nM,C[C@H]1Cn2nc(N3CCOCC3)cc2-c2cnc([C@@](C)(O)C(F)(F)F)n21 [Example 74]
15,10 nM,C[C@H]1Cn2nc(C34CCC(C(C)(C)O)(CC3)CC4)cc2-c2cnc([C@@](C)(O)C(F)(F)F)n21 [Example 75]
16,14.5 nM,C[C@H]1Cn2nc(C34CC(C(C)(C)O)(C3)C4)cc2-c2cnc([C@@](C)(O)C(F)(F)F)n21 [Example 76]

row,IC50,SMILES
1,14.4 nM,C[C@H]1Cn2nc(N3CCC4(CC3)COC4)cc2-c2cnc([C@@](C)(O)C(F)(F)F)n21 [Example 77]
2,15.1 nM,C[C@H]1Cn2nc(N3CC4C(C3)C4(F)F)cc2-c2cnc([C@@](C)(O)C(F)(F)F)n21 (stereo partly drawn) [Example 78]
3,43.4 nM,C[C@H]1Cn2nc(N3C[C@H]4COC[C@H]4C3)cc2-c2cnc([C@@](C)(O)C(F)(F)F)n21 [Example 80]
4,29.8 nM,C[C@H]1Cn2nc(N3C[C@@H]4C[C@H]3CO4)cc2-c2cnc([C@@](C)(O)C(F)(F)F)n21 [Example 81]
5,34 nM,C[C@H]1Cn2nc(N3C[C@H]4C[C@@H]3CO4)cc2-c2cnc([C@@](C)(O)C(F)(F)F)n21 [Example 82]
6,18.6 nM,C[C@H]1Cn2nc(N3CC4CC3C4)cc2-c2cnc([C@@](C)(O)C(F)(F)F)n21 [Example 83]
7,36.5 nM,"C[C@H]1Cn2nc(N3CC4(C3)CC(F)(F)C4)cc2-c2cnc([C@@](C)(O)C(F)(F)F)n21 [Example 84, (R)-2-((S)-9-(6,6-difluoro-2-azaspiro[3.3]heptan-2-yl)-5-methyl-5,6-dihydroimidazo[1,5-a]pyrazolo[5,1-c]pyrazin-3-yl)-1,1,1-trifluoropropan-2-ol]"
8,16.6 nM,C[C@H]1Cn2nc(C34CCC(CO)(CC3)OC4)cc2-c2cnc([C@@](C)(O)C(F)(F)F)n21 [Example 85]
9,14.1 nM,"C[C@H]1Cn2nc(C34CCC(C#N)(CC3)C4)cc2-c2cnc([C@@](C)(O)C(F)(F)F)n21 [Example 86, 4-((S)-5-methyl-3-((R)-1,1,1-trifluoro-2-hydroxypropan-2-yl)-5,6-dihydroimidazo[1,5-a]pyrazolo[5,1-c]pyrazin-9-yl)bicyclo[2.2.1]heptane-1-carbonitrile]"
10,11 nM,C[C@H]1Cn2nc(C34CCC(CO)(CC3)C4)cc2-c2cnc([C@@](C)(O)C(F)(F)F)n21 [Example 87]
11,23.8 nM,"C[C@H]1Cn2nc(C34CCC(C#N)(CC3)OC4)cc2-c2cnc([C@@](C)(O)C(F)(F)F)n21 [Example 88, 4-((S)-5-methyl-3-((R)-1,1,1-trifluoro-2-hydroxypropan-2-yl)-5,6-dihydroimidazo[1,5-a]pyrazolo[5,1-c]pyrazin-9-yl)-2-oxabicyclo[2.2.2]octane-1-carbonitrile]"
12,37.7 nM,C[C@H]1Cn2nc(OCC34CCC(C#N)(CC3)CC4)cc2-c2cnc([C@@](C)(O)C(F)(F)F)n21 [Example 89]
13,30.5 nM,C[C@H]1Cn2nc(OCC34CCC(C#N)(CC3)C4)cc2-c2cnc([C@@](C)(O)C(F)(F)F)n21 [Example 90]
14,23.3 nM,"C[C@H]1Cn2nc(C34CCC(C#N)(C3)C4)cc2-c2cnc([C@@](C)(O)C(F)(F)F)n21 [Example 91, 4-((S)-5-methyl-3-((R)-1,1,1-trifluoro-2-hydroxypropan-2-yl)-5,6-dihydroimidazo[1,5-a]pyrazolo[5,1-c]pyrazin-9-yl)bicyclo[2.1.1]hexane-1-carbonitrile]"
15,31.9 nM,C[C@H]1Cn2nc(C34CCC(CO)(C3)C4)cc2-c2cnc([C@@](C)(O)C(F)(F)F)n21 [Example 92]
16,33.4 nM,"C[C@H]1Cn2nc(C34CCC(C#N)(CC3)CO4)cc2-c2cnc([C@@](C)(O)C(F)(F)F)n21 [Example 93, 1-((S)-5-methyl-3-((R)-1,1,1-trifluoro-2-hydroxypropan-2-yl)-5,6-dihydroimidazo[1,5-a]pyrazolo[5,1-c]pyrazin-9-yl)-2-oxabicyclo[2.2.2]octane-4-carbonitrile]"

row,SMILES,IC50
1,C[C@H]1Cn2nc(N3CC4CC(C3)C4(F)F)cc2-c2cnc([C@@](C)(O)C(F)(F)F)n21 [Example 79],35.2 nM
